From PubChem BioAssay (NCI)
Where “and” joins values, the source holds several entries; their conditions need not be identical. Equal entries are not always repeated.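 Following 48 hours of exposure in 96-well plates, responses at five concentrations were used to interpolate endpoints linearly. GI50: concentration for 50% inhibition of growth. TGI: concentration producing complete growth inhibition.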

Key:
Assay in all cases: NCI-60 cell line screen, 48 h
UO-31 renal = test system: UO-31 renal
HS 578T breast = test system: HS 578T breast
SNB-75 CNS = test system: SNB-75 CNS
IGROV1 ovarian = test system: IGROV1 ovarian
NCI-H522 lung = test system: NCI-H522 lung
A549 NSCLC = test system: A549 NSCLC
SK-MEL-5 melanoma = test system: SK-MEL-5 melanoma
RXF 393 renal = test system: RXF 393 renal
U251 CNS = test system: U251 CNS
M14 melanoma = test system: M14 melanoma

| Compound | TGI (UO-31 renal) | TGI (HS 578T breast) | TGI (SNB-75 CNS) | TGI (IGROV1 ovarian) | TGI (NCI-H522 lung) | TGI (A549 NSCLC) | TGI (SK-MEL-5 melanoma) | TGI (RXF 393 renal) | TGI (U251 CNS) | TGI (M14 melanoma) | GI50 (UO-31 renal) | GI50 (HS 578T breast) | GI50 (IGROV1 ovarian) | GI50 (NCI-H522 lung) | GI50 (A549 NSCLC) | GI50 (SK-MEL-5 melanoma) | GI50 (M14 melanoma) | GI50 (U251 CNS) | GI50 (SNB-75 CNS) | GI50 (RXF 393 renal) |
| --- | --- | --- | --- | --- | --- | --- | --- | --- | --- | --- | --- | --- | --- | --- | --- | --- | --- | --- | --- | --- |
| O=[N+]([O-])c1cc(C(F)(F)F)cc2n[se]nc12 | 14.1 µM | 75.6 µM | 19.8 µM | 14.6 µM | 6.54 µM | 27 µM | 8.02 µM | 4.91 µM | 29.5 µM | 3.22 µM |  |  |  |  |  |  |  |  |  |  |
| CC1OC(OC2C(O)C(OCCc3ccc(O)c(O)c3)OC(CO)C2OC(=O)/C=C/c2ccc(O)c(O)c2)C(O)C(O)C1O (stereo unspecified) | 57.6 µM | > 100 µM |  | > 100 µM | > 100 µM | > 100 µM | > 100 µM |  |  | > 100 µM | 23.7 µM | > 100 µM | 47.6 µM | > 100 µM | > 100 µM | > 100 µM | > 100 µM |  |  |  |
| O=C1NC(c2cccc3ccccc23)Nc2ccccc21 (stereo unspecified) | > 100 µM | 92.2 µM | 35.9 µM | > 100 µM | 0.0765 µM and 0.25 µM | > 100 µM |  |  | 0.3 µM and 0.83 µM | 0.672 µM | 0.0362 µM |  | 0.0636 µM | 0.0194 µM and 0.0497 µM | 0.0582 µM | 0.00988 µM | 0.0177 µM | 0.0259 µM |  |  |
| O=C(Nc1cccc(-n2ccc3c(NC(=O)c4ccccc4)nccc32)c1)c1ccc(Cl)c(Cl)c1 | 2.18 µM | 1.31 µM | 1.22 µM | 1.9 µM | 1.22 µM | 1.71 µM | 0.347 µM | 0.639 µM | 1.6 µM | 0.802 µM | 0.573 µM | 0.0822 µM | 0.25 µM | 0.0786 µM | 0.136 µM | 0.0719 µM | 0.117 µM | 0.0875 µM | 0.147 µM | 0.106 µM |
| O=C(O)CC(S)C(=O)O.[Li+].[Sb] (stereo unspecified) | > 100 µM | > 100 µM |  | > 100 µM |  | > 100 µM | 29 µM | > 100 µM | > 100 µM | > 100 µM | > 100 µM | > 100 µM | > 100 µM |  | > 100 µM | 13.7 µM | 39.5 µM | 39.9 µM |  | > 100 µM |
| COc1ccc2[nH]cc(C3(c4c[nH]c5ccc(OC)cc45)C(=O)Nc4ccc(Cl)cc43)c2c1 | > 100 µM | > 100 µM | 14 µM | 21.2 µM |  |  | 7.57 µM | 13.6 µM | 13.4 µM | > 100 µM | 2.27 µM | 5.38 µM | 3.28 µM |  |  | 2.56 µM | 4.06 µM | 2.88 µM | 1.9 µM | 3.4 µM |
| COc1ccc(C(=O)/C=C/c2c(C(F)(F)F)nc3ccccn23)cc1OC | 29.5 µM | > 100 µM | 6.77 µM | 3.41 µM | 0.929 µM | > 100 µM | 20.1 µM | 8.68 µM | > 100 µM | > 66.7 µM | 1.62 µM | 2.31 µM | 0.508 µM | 0.133 µM | 3.38 µM | 2.1 µM | 2.22 µM | 1.1 µM | 2.01 µM | 1.97 µM |
| COc1ccc(Cl)cc1Nc1nc(C(F)(F)F)ccc1C(=O)N/N=C/c1ccccc1Cl | > 26.8 µM | 40.7 µM | > 100 µM | > 24.7 µM | 16 µM | 18.5 µM | 2.96 µM | 3.06 µM | > 31 µM | 19.4 µM | 3.18 µM | 3.2 µM | 2.76 µM | 2.74 µM | 3.53 µM | 0.583 µM | 2.13 µM | 1.57 µM | 7.32 µM | 0.455 µM |
| CC(C)c1ccc(C(O)(C(=O)O)c2ccc(C(C)C)cc2)cc1 | > 100 µM | > 100 µM | > 100 µM | > 100 µM | > 100 µM | > 100 µM | > 100 µM | > 100 µM | 42.9 µM | > 100 µM |  |  |  |  |  |  |  |  |  |  |
| CCc1nc(N)nc(N)c1-c1ccc(N(C)Cc2ccccc2)c([N+](=O)[O-])c1 | 16 µM | 72.7 µM | 19.5 µM | 25.8 µM | 14.6 µM | 16 µM | 4.32 µM | 22.9 µM | 24.5 µM | 11.3 µM |  |  |  |  |  |  |  |  |  |  |
| Cc1nccc2c3ccc(OCc4cn(-c5ccc(Br)cc5)nn4)cc3n(CCCc3ccccc3)c12 | 3.01 µM | 4.56 µM | 3.98 µM | > 100 µM |  |  | > 100 µM |  | 3.79 µM | 2.47 µM | 1.41 µM | 1.31 µM | 6.44 µM |  |  | 3.92 µM | 1.14 µM | 1.92 µM | 1.54 µM |  |
| CN(C)C[C@@H]1CCn2cc(c3ccccc32)C2=C(C(=O)NC2=O)c2cn(c3ccccc23)CCO1 | 3.23 µM | 8.88 µM | 5.96 µM | 8.49 µM | 7.31 µM | > 10 µM | 7.11 µM | 5.17 µM | > 10 µM | > 10 µM | 0.539 µM | 1.76 µM | 1.3 µM | 0.763 µM | 2.72 µM | 1.39 µM | 1.03 µM | 1.9 µM | 1.4 µM | 1.77 µM |
| CCOC(=O)Nc1cc2c(c(N)n1)N=C(c1ccccc1)CN2 |  |  | 31 µM |  | < 0.0001 µM | 18.1 µM | < 0.0001 µM | 29.2 µM | 1.42 µM | > 49 µM | 0.107 µM |  | < 0.0001 µM | < 0.0001 µM | < 0.0001 µM | < 0.0001 µM | < 0.0001 µM |  |  |  |
| COC1/C=C/OC2(C)Oc3c(C)c(O)c4c(O)c(c(/C=N/N(c5ccccc5)c5ccccc5)c(O)c4c3C2=O)NC(=O)C(C)=C/C=C/C(C)C(O)C(C)C(O)C(C)C(OC(C)=O)C1C (stereo unspecified) | 12 µM | 4.33 µM | 7.18 µM | 11.5 µM | 2.19 µM | 7.8 µM | 6.75 µM | 1.93 µM | 3 µM |  | 3.02 µM | 1.19 µM | 1.85 µM | 0.983 µM | 2.11 µM | 1.76 µM |  | 1.2 µM | 1.66 µM | 0.963 µM |
